Measured values reported in patent US20230146455A1, “TREATMENT OF INFLAMMATORY DISEASES WITH PEPTIDES AND PHARMACEUTICAL COMPOSITIONS” (Yuyu Pharma, Inc., priority 2020, published 2023).
Several values for one entry are separate records, joined by “and”; a condition that tells them apart may be missing. Equal values may be shown once. Where a SMILES comes first, the peptide text is derived from it. [ ]: non-standard residue; d: D form. Hyp = O=C(O)[C@@H]1C[C@@H](O)CN1

Legend:
IL-17A = assay: Example 9 Luminex, LPS hPBMCs: IL-17A; format: cell-based, human
Method: (§1) Treatment Human PBMCs were pretreated with YY-101, YDE-011 and YDE-043 or reference compound; Xiidra® at various concentration (ranging from 1 nM to 100 uM) for 2 h before stimulation. An equal volume of 0.5% DMSO was used as a vehicle control. Then, the cells were treated with LPS at 5 ug/ml. The supernatants from treated cells were harvested at 24 h and placed in a 96 well for Luminex cytokine & chemokine profiling using a Luminex 200 multiplex assay (Luminex; R&D system, USA).
(§2) The main study arm with triplicate wells per group in a 24-well plate: • 1. Blank • 2. PBMC: 0.5% DMSO • 3. PBMC+LPS (5 ug/ml) • 4. PBMC+YY-101 100 uM • 5. PBMC+YY-101 10 uM • 6. PBMC+YY-101 1 uM • 7. PBMC+YY-101 0.1 uM • 8. PBMC+YY-101 0.01 uM • 9. PBMC+LPS (5 ug/ml)+Xiidra®100 uM • 10. PBMC+LPS (5 ug/ml)+Xiidra® 10 uM • 11. PBMC+LPS (5 ug/ml)+Xiidra® 1 uM • 12. PBMC+LPS (5 ug/ml)+Xiidra®0.1 uM • 13. PBMC+LPS (5 ug/ml)+Xiidra®0.01 uM • 14. PBMC+LPS (5 ug/ml)+Xiidra®0.001 uM • 15. PBMC+LPS (5 ug/ml)+YY-101 100 uM • 16. PBMC+LPS (5 ug/ml)+YY-101 10 uM • 17. PBMC+LPS (5 ug/ml)+YY-101 1 uM • 18. PBMC+LPS (5 ug/ml)+YY-101 0.1 uM • 19. PBMC+LPS (5 ug/ml)+YY-101 0.01 uM • 20. PBMC+LPS (5 ug/ml)+YY-101 0.001 uM • 21. PBMC+LPS (5 ug/ml)+YDE-011 100 uM • 22. PBMC+LPS (5 ug/ml)+YDE-011 10 uM • 23. PBMC+LPS (5 ug/ml)+YDE-011 1 uM • 24. PBMC+LPS (5 ug/ml)+YDE-011 0.1 uM • 25. PBMC+LPS (5 ug/ml)+YDE-011 0.01 uM • 26. PBMC+LPS (5 ug/ml)+YDE-011 0.001 uM • 27. PBMC+LPS (5 ug/ml)+YDE-043 100 uM • 28. PBMC+LPS (5 ug/ml)+YDE-043 10 uM • 29. PBMC+LPS (5 ug/ml)+YDE-043 1 uM • 30. PBMC+LPS (5 ug/ml)+YDE-043 0.1 uM • 31. PBMC+LPS (5 ug/ml)+YDE-043 0.01 uM • 32. PBMC+LPS (5 ug/ml)+YDE-043 0.001 uM
(§3) Multiplex assay was used to measure 30 cytokines and chemokines. The 1:2, 1:10 and 1:200 diluted cell supernatant and serial dilution of the standard were dispensed into a 96 well plate at 50 ul/well. Then, the pre-mixed cocktail of antibody-coated magnetic beads was dispensed at 50 ul/well and incubated at room temperature for 2 h in a horizontal orbital microplate shaker at 800±500 rpm. The beads were washed using a magnetic device to prevent loss. The biotin-antibody was dispensed in 50 ul of each well and incubated at room temperature for 1 h in a shaker at 800±500 rpm. After washing, streptavidin-PE was added at 50 ul/well and incubated at room temperature for 30 min in a shaker under the same conditions. Finally, after washing, wash buffer (100 ul/well) was added to the plate and incubated in a shaker for 2 min. The Luminex™ 200 setting were set according to the manufacturer's protocol. The data was calculated with a standard five-parameter logistic nonlinear regression analysis of the data (xPonent software 4.2, USA). The levels of cytokine/chemokine are normalized to the live cell counts (1×10^5 cells/mL) and presented as concentrations per mL (pg/mL or ng/mL).

IL-8 = assay: Example 9 Luminex, LPS hPBMCs: IL-8; format: cell-based, human
Method: as §1, §2, §3

[1] = PBMC + LPS(5 ug/ml) + test article 0.001 uM, Mean
[2] = PBMC + LPS(5 ug/ml) + test article 0.001 uM, single replicates (1st, 2nd, 3rd)
[3] = PBMC + LPS(5 ug/ml) + test article 0.01 uM, Mean
[4] = PBMC + LPS(5 ug/ml) + test article 0.01 uM, single replicates (1st, 2nd, 3rd)
[5] = PBMC + LPS(5 ug/ml) + test article 0.1 uM, Mean
[6] = PBMC + LPS(5 ug/ml) + test article 0.1 uM, single replicates (1st, 2nd, 3rd)
[7] = PBMC + LPS(5 ug/ml) + test article 1 uM, Mean
[8] = PBMC + LPS(5 ug/ml) + test article 1 uM, single replicates (1st, 2nd, 3rd)
[9] = PBMC + LPS(5 ug/ml) + test article 10 uM, Mean
[10] = PBMC + LPS(5 ug/ml) + test article 10 uM, single replicates (1st, 2nd, 3rd)
[11] = PBMC + LPS(5 ug/ml) + test article 100 uM, Mean
[12] = PBMC + LPS(5 ug/ml) + test article 100 uM, single replicates (1st, 2nd, 3rd)

With `CC(C)C[C@H](NC(=O)[C@H](CCC(N)=O)NC(=O)CNC(=O)[C@@H]1C[C@@H](O)CN1)C(=O)NCC(=O)O` [YDE-043] (H-[Hyp]GQLG-OH; N-terminus and C-terminus assumed) the “Concentration, IL-17A” value (IL-17A; [1]) was 1.0 pg/mL, the “MFI, Bead name: IL-17A” value (IL-17A; [1]) was 0.2 and the “conc/live cell, IL-17A” value (IL-17A; [1]) was 0.2 pg/10^5. For the same molecule, the “Concentration, IL-17A” value (IL-17A; [2]) was 1.0 pg/mL, the “MFI, Bead name: IL-17A” value (IL-17A; [2]) was 0.5 (2×) and −0.5 and the “conc/live cell, IL-17A” value (IL-17A; [2]) was 0.2 pg/10^5 (2×) and 0.0 pg/10^5. For the same molecule, the “Concentration, IL-17A” value (IL-17A; [3]) was 1.0 pg/mL, the “MFI, Bead name: IL-17A” value (IL-17A; [3]) was 0.5 and the “conc/live cell, IL-17A” value (IL-17A; [3]) was 0.2 pg/10^5. For the same molecule, the “Concentration, IL-17A” value (IL-17A; [4]) was 1.0 pg/mL, the “MFI, Bead name: IL-17A” value (IL-17A; [4]) was 0.5 and the “conc/live cell, IL-17A” value (IL-17A; [4]) was 0.2 pg/10^5. For the same molecule, the “Concentration, IL-17A” value (IL-17A; [5]) was 1.6 pg/mL, the “MFI, Bead name: IL-17A” value (IL-17A; [5]) was 0.8 and the “conc/live cell, IL-17A” value (IL-17A; [5]) was 0.3 pg/10^5. The “Concentration, IL-17A” value (IL-17A; [6]) was 2.7 pg/ml and 1.0 pg/ml (2×), the “MFI, Bead name: IL-17A” value (IL-17A; [6]) was 1.5 and 0.5 (2×) and the “conc/live cell, IL-17A” value (IL-17A; [6]) was 0.5 pg/10^5 and 0.2 pg/10^5 (2×). The “Concentration, IL-17A” value (IL-17A; [7]) was 1.9 pg/mL, the “MFI, Bead name: IL-17A” value (IL-17A; [7]) was 0.5 and the “conc/live cell, IL-17A” value (IL-17A; [7]) was 0.2 pg/10^5. The “Concentration, IL-17A” value (IL-17A; [8]) was 1.0 pg/mL and 2.7 pg/mL, the “MFI, Bead name: IL-17A” value (IL-17A; [8]) was 0.5 and −0.5 and 1.5 and the “conc/live cell, IL-17A” value (IL-17A; [8]) was 0.2 pg/10^5 and 0.0 pg/10^5 and 0.5 pg/10^5. The “Concentration, IL-17A” value (IL-17A; [9]) was 1.3 pg/mL, the “MFI, Bead name: IL-17A” value (IL-17A; [9]) was 0.7 and the “conc/live cell, IL-17A” value (IL-17A; [9]) was 0.2 pg/10^5. The “Concentration, IL-17A” value (IL-17A; [10]) was 0.1 pg/mL and 2.7 pg/mL and 1.0 pg/mL, the “MFI, Bead name: IL-17A” value (IL-17A; [10]) was 0.0 and 1.5 and 0.5 and the “conc/live cell, IL-17A” value (IL-17A; [10]) was 0.0 pg/10^5 and 0.5 pg/10^5 and 0.2 pg/10^5. For the same molecule, the “MFI, Bead name: IL-17A” value (IL-17A; [11]) was −0.5, the “conc/live cell, IL-17A” value (IL-17A; [11]) was 0.0 pg/10^5 and the “MFI, Bead name: IL-17A” value (IL-17A; [12]) was −0.5. For the same molecule, the “conc/live cell, IL-17A” value (IL-17A; [12]) was 0.0 pg/10^5, the Concentration (IL-8; [1]) was 27612.8 pg/mL and the conc/live cell (IL-8; [1]) was 5610.5 pg/10^5. For the same molecule, the Concentration (IL-8; [2]) was 25319.8 pg/mL and 28134.2 pg/mL and 29384.5 pg/mL, the conc/live cell (IL-8; [2]) was 5754.5 pg/10^5 and 4689.0 pg/10^5 and 6387.9 pg/10^5 and the Concentration (IL-8; [3]) was 27805.6 pg/mL. The conc/live cell (IL-8; [3]) was 5331.3 pg/10^5, the Concentration (IL-8; [4]) was 28010.8 pg/mL and 27056.0 pg/mL and 28350.1 pg/mL and the conc/live cell (IL-8; [4]) was 6224.6 pg/10^5 and 4099.4 pg/10^5 and 5670.0 pg/10^5. For the same molecule, the Concentration (IL-8; [5]) was 26729.6 pg/mL, the conc/live cell (IL-8; [5]) was 4969.6 pg/10^5 and the Concentration (IL-8; [6]) was 27502.4 pg/mL and 24737.2 pg/mL and 27949.2 pg/mL. For the same molecule, the conc/live cell (IL-8; [6]) was 5500.5 pg/10^5 and 4417.4 pg/10^5 and 4990.9 pg/10^5, the Concentration (IL-8; [7]) was 26441.2 pg/mL and the conc/live cell (IL-8; [7]) was 4990.4 pg/10^5. The Concentration (IL-8; [8]) was 27517.8 pg/mL and 23008.1 pg/mL and 28797.5 pg/mL, the conc/live cell (IL-8; [8]) was 4744.4 pg/10^5 and 4793.4 pg/10^5 and 5433.5 pg/10^5 and the Concentration (IL-8; [9]) was 29354.3 pg/mL. For the same molecule, the conc/live cell (IL-8; [9]) was 5450.9 pg/10^5, the Concentration (IL-8; [10]) was 28998.3 pg/mL and 34618.6 pg/mL and 24446.1 pg/mL and the conc/live cell (IL-8; [10]) was 5576.6 pg/10^5 and 6410.8 pg/10^5 and 4365.4 pg/10^5. For the same molecule, the Concentration (IL-8; [11]) was 25505.9 pg/mL, the conc/live cell (IL-8; [11]) was 4053.3 pg/10^5 and the Concentration (IL-8; [12]) was 26994.4 pg/mL and 24017.4 pg/mL. For the same molecule, the conc/live cell (IL-8; [12]) was 4353.9 pg/10^5 and 3752.7 pg/10^5.
